# Assay results as given in patent US20260365684A1, “PHYTOSPHINGOSINE-3,4-CYCLICPHOSPHATE COMPOUND AND PHARMACEUTICAL COMPOSITION COMPRISING THE SAME” (AXCESO BIOPHARMA CO., LTD., priority 2022, published 2026).
# pEC50: −log10 of the molar value.
# Experiments:
# SIRT1 = conditions: known value; read-out: EC50 as SIRT1 activator; cited from earlier work
# C57BL/6 mice = assay: Survival in sepsis induced by cecal ligation and puncture (CLP); format: in vivo, mouse; conditions: 100 ng/mouse (5 μg/kg) at 6 and 16 hours after CLP; FIG. 8
# Experimental: C57BL/6 mice aged 7-8 weeks were purchased from Jabio (Suwon, Gyeonggi-do) and sepsis was induced by cecal ligation and puncture (CLP).
# Specifically, after anesthesia using 150 mg/kg of ketamine and 17.5 mg/kg of rompun, an abdominal incision of 1-2 cm was made to expose the cecum to induce sepsis. The cecum was ligated with 6-0 silk sutures at the distal end of the ileocecal valve, and a puncture was made with an 18-gauge needle. The perforated cecum was gently squeezed to push out 1-2 cm of feces, and the cecum was then retracted back into the abdominal cavity. The abdomen was then closed and pre-warmed normal saline (2.5 mL/100 g body weight) was injected into the mouse abdominal cavity immediately after the procedure. 6 and 16 hours after CLP treatment, the compound of formula (1a-1) was dissolved in phosphate buffered saline (PBS) and injected intravenously at 100 ng/mouse (5 μg/kg), and survival was examined for 10 days. […] In addition, as a drug-negative control, survival was examined in mice that received only PBS after CLP treatment.
# For comparison, we also examined the survival of a control group treated with fingolimod (FTY720), a known S1P modulator, instead of the compound of formula (1a-1) under the same conditions.
# [1] = test system: tyrosine hydroxylase (TH); assay: Tyrosine hydroxylase expression in differentiated SH-SY5Y dopaminergic neurons by western blot; format: cell-based, human; conditions: differentiated dopaminergic neurons treated with rotenone (RT); FIG. 6
# Experimental: (§1) To analyze the effect on the expression of tyrosine hydroxylase (TH) and α-synuclein as neuron-specific proteins, western blot was performed.
# (§2) SH-SY5Y cell line was treated with retinoic acid and 12-O-tetradecanoylphorbol-13-acetate (TPA) to induce differentiation into TH-secreting neurons for 6 days.
# (§3) Differentiated dopaminergic neurons were lysed in PRO-PREP (Intronbio), a cell lysis solution containing protease inhibitor cocktail (Gendepot), and electrophoresed in 10% SDS polyacrylamide gels at 20 μg/well. Transfer was performed using PVDF (Merck millipore) as a membrane, and tyrosine hydroxylase antibody, «-synuclein antibody (Cell signaling), and β-actin antibody (Santa Cruz) were used for reaction for more than 2 hours. Protein expression was detected by staining with ECL substrate (Biorad) for development and graphed using the image J program.
# α-synuclein = α-synuclein expression in differentiated SH-SY5Y dopaminergic neurons by western blot; format: cell-based, human; conditions: differentiated dopaminergic neurons treated with rotenone (RT); FIG. 6
# Experimental: as §1, §2, §3
structure (smiles),measurement,setting,value
"CCCCCCCCc1ccc(CCC(N)(CO)CO)cc1 [FTY720, fingolimod, reference compound]",survival,C57BL/6 mice,did not improve survival
"C=C(C)[C@H]1Cc2c(ccc3c2O[C@@H]2COc4cc(OC)c(OC)cc4[C@@H]2C3=O)O1 [rotenone, reference compound]",expression of TH,[1],the expression of TH is decreased
same,expression of α-synuclein,α-synuclein,the expression of α-synuclein is increased
